Measured values reported in PubChem BioAssay AID2060505 (Molecular Pharmacology Branch, DTP, NCI, 2025).

System: 633275-114-R-J1-PDC complex spheroids, viability
Experiment: Anticancer human tumor 633275-114-R-J1-PDC patient-derived endometrial adenocarcinoma cell line growth inhibition [GQUAD]
Details: for IC50: curve of first compound; for viability, T/C: stronger effect = lower value
Summary of the method: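 Multi-cell-type spheroids of tumor cells with HUVEC and mesenchymal stem cells, treated with drug combinations. Concentrations descend in half-log steps from near clinical Cmax, or from 10 microM where Cmax is unknown; viability read-out.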

[1] = second compound 0.0316 µM, first compound 0.0316 µM
[2] = second compound 0.0316 µM, first compound 0.1 µM
[3] = second compound 0.0316 µM, first compound 0.316 µM
[4] = second compound 0.0316 µM, first compound 1 µM
[5] = second compound 0.0316 µM, first compound 3.16 µM
[6] = second compound 0.0316 µM, first compound 10 µM
[7] = second compound 0.1 µM, first compound 0.0316 µM
[8] = second compound 0.1 µM, first compound 0.1 µM
[9] = second compound 0.1 µM, first compound 0.316 µM
[10] = second compound 0.1 µM, first compound 1 µM
[11] = second compound 0.1 µM, first compound 3.16 µM
[12] = second compound 0.1 µM, first compound 10 µM
[13] = second compound 0.316 µM, first compound 0.0316 µM
[14] = second compound 0.316 µM, first compound 0.1 µM
[15] = second compound 0.316 µM, first compound 0.316 µM
[16] = second compound 0.316 µM, first compound 1 µM
[17] = second compound 0.316 µM, first compound 3.16 µM
[18] = second compound 0.316 µM, first compound 10 µM
[19] = second compound 1 µM, first compound 0.0316 µM
[20] = second compound 1 µM, first compound 0.1 µM
[21] = second compound 1 µM, first compound 0.316 µM
[22] = second compound 1 µM, first compound 1 µM
[23] = second compound 1 µM, first compound 3.16 µM
[24] = second compound 1 µM, first compound 10 µM
[25] = second compound 3.16 µM, first compound 0.0316 µM
[26] = second compound 3.16 µM, first compound 0.1 µM
[27] = second compound 3.16 µM, first compound 0.316 µM
[28] = second compound 3.16 µM, first compound 1 µM
[29] = second compound 3.16 µM, first compound 3.16 µM
[30] = second compound 3.16 µM, first compound 10 µM
[31] = second compound 10 µM, first compound 0.0316 µM
[32] = second compound 10 µM, first compound 0.1 µM
[33] = second compound 10 µM, first compound 0.316 µM
[34] = second compound 10 µM, first compound 1 µM
[35] = second compound 10 µM, first compound 3.16 µM
[36] = second compound 10 µM, first compound 10 µM
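Also: spheroids exposed to the agents for seven days.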
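For viability, T/C in this document: percent of DMSO vehicle control viability which is 100%.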

COc1cc(C2c3cc4c(cc3C(OC3OC5COC(C)OC5C(O)C3O)C3COC(=O)C23)OCO4)cc(OC)c1O (stereo unspecified) + Cc1cnc(CNC(=O)c2c(=O)c3ccc(N4CCCN(C)CC4)nc3n3c2sc2ccccc23)cn1
IC50 (second compound 0.0316 µM): 185 nM | IC50 (second compound 0.1 µM): 86.6 nM | IC50 (second compound 0.316 µM): < 31.6 nM | IC50 (second compound 1 µM): < 31.6 nM | IC50 (second compound 3.16 µM): < 31.6 nM | IC50 (second compound 10 µM): < 31.6 nM | viability, T/C [1]: 53.3% | viability, T/C [2]: 55.2% | viability, T/C [3]: 47.4% | viability, T/C [4]: 41.3% | viability, T/C [5]: 36.6% | viability, T/C [6]: 27.8% | viability, T/C [7]: 54.4% | viability, T/C [8]: 45.2% | viability, T/C [9]: 50.1% | viability, T/C [10]: 40% | viability, T/C [11]: 31.8% | viability, T/C [12]: 29.4% | viability, T/C [13]: 43.4% | viability, T/C [14]: 45.8% | viability, T/C [15]: 43.6% | viability, T/C [16]: 41.4% | viability, T/C [17]: 31.9% | viability, T/C [18]: 28.1% | viability, T/C [19]: 40.9% | viability, T/C [20]: 41% | viability, T/C [21]: 43.5% | viability, T/C [22]: 41% | viability, T/C [23]: 34.1% | viability, T/C [24]: 28.4% | viability, T/C [25]: 31.7% | viability, T/C [26]: 32.9% | viability, T/C [27]: 35.9% | viability, T/C [28]: 32.7% | viability, T/C [29]: 34.2% | viability, T/C [30]: 25.5% | viability, T/C [31]: 28.2% | viability, T/C [32]: 31.4% | viability, T/C [33]: 28.7% | viability, T/C [34]: 32.9% | viability, T/C [35]: 27.2% | viability, T/C [36]: 20.9%

COc1cccc2c1C(=O)c1c(O)c3c(c(O)c1C2=O)CC(O)(C(=O)CO)CC3OC1CC(N)C(O)C(C)O1 (stereo unspecified) + Cc1cnc(CNC(=O)c2c(=O)c3ccc(N4CCCN(C)CC4)nc3n3c2sc2ccccc23)cn1
IC50 (second compound 0.0316 µM): < 31.6 nM | IC50 (second compound 0.1 µM): < 31.6 nM | IC50 (second compound 0.316 µM): < 31.6 nM | IC50 (second compound 1 µM): < 31.6 nM | IC50 (second compound 3.16 µM): < 31.6 nM | IC50 (second compound 10 µM): < 31.6 nM | viability, T/C [1]: 47.7% | viability, T/C [2]: 44.6% | viability, T/C [3]: 34.8% | viability, T/C [4]: 19.2% | viability, T/C [5]: 1.21% | viability, T/C [6]: 1.57% | viability, T/C [7]: 47.7% | viability, T/C [8]: 43.1% | viability, T/C [9]: 33.9% | viability, T/C [10]: 19.1% | viability, T/C [11]: 0.53% | viability, T/C [12]: 1.49% | viability, T/C [13]: 44.1% | viability, T/C [14]: 39.7% | viability, T/C [15]: 30.2% | viability, T/C [16]: 14.3% | viability, T/C [17]: 0.1% | viability, T/C [18]: 1.32% | viability, T/C [19]: 41.4% | viability, T/C [20]: 35.2% | viability, T/C [21]: 30.6% | viability, T/C [22]: 16% | viability, T/C [23]: 0.1% | viability, T/C [24]: 0.65% | viability, T/C [25]: 33.8% | viability, T/C [26]: 32.2% | viability, T/C [27]: 25.4% | viability, T/C [28]: 11.2% | viability, T/C [29]: 0.14% | viability, T/C [30]: 0.46% | viability, T/C [31]: 31% | viability, T/C [32]: 28.8% | viability, T/C [33]: 24.5% | viability, T/C [34]: 4.52% | viability, T/C [35]: 0.19% | viability, T/C [36]: 0.43%

O=c1[nH]cc(F)c(=O)[nH]1 + Cc1cnc(CNC(=O)c2c(=O)c3ccc(N4CCCN(C)CC4)nc3n3c2sc2ccccc23)cn1
IC50 (second compound 0.0316 µM): > 10000 nM | IC50 (second compound 0.1 µM): 1120 nM | IC50 (second compound 0.316 µM): < 31.6 nM | IC50 (second compound 1 µM): < 31.6 nM | IC50 (second compound 3.16 µM): < 31.6 nM | IC50 (second compound 10 µM): < 31.6 nM | viability, T/C [1]: 67% | viability, T/C [2]: 66.8% | viability, T/C [3]: 62.7% | viability, T/C [4]: 64.5% | viability, T/C [5]: 58.8% | viability, T/C [6]: 50.6% | viability, T/C [7]: 60.6% | viability, T/C [8]: 49.7% | viability, T/C [9]: 55.8% | viability, T/C [10]: 48.5% | viability, T/C [11]: 51% | viability, T/C [12]: 43.7% | viability, T/C [13]: 45.1% | viability, T/C [14]: 49.6% | viability, T/C [15]: 45.6% | viability, T/C [16]: 46.8% | viability, T/C [17]: 46.1% | viability, T/C [18]: 34.4% | viability, T/C [19]: 40.9% | viability, T/C [20]: 45.9% | viability, T/C [21]: 39.4% | viability, T/C [22]: 39.2% | viability, T/C [23]: 41.2% | viability, T/C [24]: 31.5% | viability, T/C [25]: 40.7% | viability, T/C [26]: 38% | viability, T/C [27]: 37% | viability, T/C [28]: 32.6% | viability, T/C [29]: 36.7% | viability, T/C [30]: 34.9% | viability, T/C [31]: 35.8% | viability, T/C [32]: 33.6% | viability, T/C [33]: 30.6% | viability, T/C [34]: 38.4% | viability, T/C [35]: 30.9% | viability, T/C [36]: 25%
